Data reported in patent US20110104155A1, “DRUG DELIVERY TO THE ANTERIOR AND POSTERIOR SEGMENTS OF THE EYE USING EYE DROPS” (Raouf Rekik, priority 2008, published 2011).

How the values were obtained:
[1] = in vivo
Experimental: (§1) The experimental technique was based on ocular fundus fluorescence: Five patients were used in this study. […] Then every hour, the conjunctivae of the two eyes were exposed every hour to a 10% fluorescein solution. 8 hours later the fundus fluorescence in the two eyes was measured and analysed.

[2] = ocular fundus fluorescence after topical drug carrier plus fluorescein eye drops; conditions: exposure of the conjunctival fornices to a 10% fluorescein solution; 7 hours later
Experimental: as §1

[3] = test system: macular oedema secondary to CRVO; conditions: injected into the eye (intravitreal); cited from earlier work

Molecule | anterior segment fluorescence compared with the eye receiving only fluorescein [1] | ocular fundus fluorescence compared with the eye receiving only fluorescein [1] | effect on macular oedema secondary to CRVO [3] | also measured
Brc1c(NC2=NCCN2)ccc2nccnc12 [brimonidine] | stronger | stronger | – | –
O=C1OC2(c3ccc(O)cc3Oc3cc(O)ccc32)c2ccccc21 [fluorescein] | – | – | – | maximum vitreous concentration [2]: 1.5e-12 g/mL
CNC[C@H](O)c1cccc(O)c1 [neosynephrine] | – | stronger | – | –
CC(C)(C)NC[C@H](O)COc1nsnc1N1CCOCC1 [timolol] | the same | stronger | – | –
C[C@]12C=CC(=O)C=C1CC[C@H]1[C@@H]3C[C@@H](O)[C@](O)(C(=O)CO)[C@@]3(C)C[C@H](O)[C@@]12F [triancinolone (Aristocert®), triancinolone] | – | – | efficacy | –
bevacizumab [Avastin®] | – | – | improved | –
